Assay results: PubChem BioAssay (NCI)
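Exposure lasted 48 hours, with cells grown in 96-well plates and compounds tested at five concentrations. TGI is the concentration that stops growth completely.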

Tests used:
Assay in all cases: DTP human tumour cell line panel, 48 h
HOP-92 NSCLC = test system: HOP-92 NSCLC
NCI-H23 lung = test system: NCI-H23 lung
SW-620 colon = test system: SW-620 colon
SK-OV-3 ovarian = test system: SK-OV-3 ovarian
TK-10 renal = test system: TK-10 renal
BT-549 breast = test system: BT-549 breast
RPMI-8226 leukemia = test system: RPMI-8226 leukemia
OVCAR-8 ovarian = test system: OVCAR-8 ovarian
COLO 205 colon = test system: COLO 205 colon
ACHN renal = test system: ACHN renal

SMILES	TGI (HOP-92 NSCLC) [µM]	TGI (NCI-H23 lung) [µM]	TGI (SW-620 colon) [µM]	TGI (SK-OV-3 ovarian) [µM]	TGI (TK-10 renal) [µM]	TGI (BT-549 breast) [µM]	TGI (RPMI-8226 leukemia) [µM]	TGI (OVCAR-8 ovarian) [µM]	TGI (COLO 205 colon) [µM]	TGI (ACHN renal) [µM]
CN1CCN(C(=O)c2cn(Cc3cncn3Cc3ccc4c(c3)OCO4)cc2-c2cccc3ccccc23)CC1	57.8	> 89.7	> 100	> 100	> 100	> 63	38.7	> 100	49.9	> 100
Nc1[nH]c(=O)nc2c1ncn2C1OC(CO)C(O)C1O (stereo not drawn)	> 100	> 100	> 100	> 100	> 100	> 100	> 100	74.4	> 100	> 100
CCCCCC[C@H]([C@H](C)O)n1cnc2c(N)ncnc21	> 100	> 100	> 100	> 100	> 100		> 100	> 100	> 100	> 100
Clc1ccc2c(NCCCCCCNc3ccnc4cc(Cl)ccc34)ccnc2c1	5.8	31.5	3.78	17.5	18.2	27.5	6.53	4.9	4.62	8.91
COc1ccccc1NC(=O)C(=O)C(C(=O)c1ccccc1F)C1OC(=O)c2ccccc21 (stereo not drawn)	> 100	57.6	> 100	99.7	> 100		69.6	47.2	43.6	> 100
COC1CC(C)(NC(=O)C(F)(F)F)C2OC(c3ccccc3)OCC2O1 (stereo not drawn)	> 100	> 100	> 100	> 100	> 100	> 100	> 100	> 100	> 100	> 100
COC(=N)C1(C#N)NC(c2ccsc2)C(C#N)(C#N)NC1c1ccsc1 (stereo not drawn)	> 100	> 100	> 100	> 100	> 100	> 100	> 100	> 100	> 100	> 100
O=C1Nc2ccccc2/C1=C\c1c(Cl)n(-c2ccccc2)c2ccccc12	7.63	14	> 100	24	27	29.8	> 100	40.8	4.13	29.7
Cc1nc2c(Br)cc(Br)cc2c(=O)n1-c1ccccc1NC1OC(CO)C(O)C(O)C1O (stereo not drawn)	> 100	> 100	> 100	> 100	> 100	> 100	> 100	> 100	> 100	> 100
CC1=C(CO)C(=O)OC(C(C)C2CCC3C4CC5OC56C(O)C(N5CC5)=CC(=O)C6(C)C4CCC23C)C1 (stereo not drawn)	19.3	7	6.4		22		17.8	5.78		19.5
Cc1nc(NC(C)(CO)CO)nc(N/N=C/c2ccc(Cl)cc2)c1C(=O)Nc1ccc(Cl)cc1		> 100	> 100	> 100	> 100	> 100	> 100	> 100	> 100	> 100
CC(=O)NC1C(OCc2ccccc2)OC(CO)C(O)C1OC(C)C(=O)N[C@@H](C)C(=O)N[C@H](CCC(=O)NCCNCCNc1c2ccccc2nc2cccc([N+](=O)[O-])c12)C(N)=O (stereo partly drawn)	0.169	0.0902	> 38.1	2.05	3.54	0.221	0.381	0.457	0.198	0.512
FC1=C2C3CCC(C3)C2C1(F)F (stereo not drawn)		> 100	> 100	> 100	> 100		> 100	> 100	> 100	> 100
NC(=O)CCC(N=c1c2ccccc2n(O)c2ccccc12)C(=O)O (stereo not drawn)		> 100	> 100	> 100	> 100		97.3	> 100	> 100	> 100
CC(=O)n1[nH]c(=O)n(-c2ccc(Cl)cc2)c1=O		> 100	> 100	> 100	> 100	> 100	> 100	> 100	> 100	> 100
CCC1(O)CC(CCN(Cc2ccccc2)C(=O)OCc2ccccc2)C(OCc2ccccc2)C1O (stereo not drawn)		30.4	> 100	34.6	36.8	33.3		30.1	34.2	32.2
CCOC(=O)c1c(N)sc2c1C(C(=O)OCC)CCCC2 (stereo not drawn)	> 100	> 100	> 100		> 100	> 100	> 100	> 100	> 100	> 100
CSC(SC)=C(C(=O)c1ccc(Cl)cc1)n1c(=O)sc2cc(Br)ccc21	> 100	> 100	> 100	> 100	> 100		> 100	> 100	> 100	> 100
O=C(O)C(Cc1ccccc1)NCc1c(O)ccc2c(-c3ccccc3)cc(=O)oc12 (stereo not drawn)	> 100	> 100	> 100	> 100	> 100		> 100	> 100	> 100	> 100
CC(O)c1nc(C#N)c(N)o1 (stereo not drawn)	> 100	> 100	> 100	> 100	> 100		> 100	> 100	> 100	> 100
COc1cc2c[n+]3c4c(c2c(OC)c1OC)CCCC4CC3 (stereo not drawn)	> 100	> 100	> 100	> 100			> 100		> 100	> 100
COC(=O)c1c2c(cc3c1CC1(Cc4cc5c(c(C=O)c4C1)CCC5)C3)CCC2 (stereo not drawn)	60.7	> 100	> 100	> 100	> 100		> 100	> 100		> 100
